Laboratory results reported in patent US20240018158A1, “BRM TARGETING COMPOUNDS AND ASSOCIATED METHODS OF USE” (Prelude Therapeutics Incorporated, priority 2020, published 2024).

Tests used:
SMARCA4 = SMARCA4 (Homo sapiens (Human), UniProt P51532); experiment: SMARCA4 HiBiT degradation assay in HeLa cells; format: cell-based; conditions: 18 hours; for DC50: read-out: DC50 (SM4-HeLa) SMARCA4 degradation potency; for Dmax: HeLa, read-out: Dmax % (SM4-HeLa) maximum SMARCA4 degradation within the concentrations tested
Method: (§1) HiBiT peptide knock-in of SMARCA2 in LgBiT expressing HEK293T cells was performed by CRISPR-mediated tagging system as described Promega. The homozygous HiBiT knock-in on c-terminus SMARCA2 was confirmed by sanger sequence. SMARCA2-HiBiT knock-in Hela monoclonal cell (CS302366) and SMARCA4-HiBiT knock-in Hela monoclonal cell (CS3023226) were purchased from Promega. The heterozygous HiBiT-knock-in was confirmed by sanger sequence in both SMARCA2-HiBiT and SMARCA4-HiBiT monoclonal cells.
(§2) Dispense 10 μL aliquot of prepared Hela-SMARCA2-HiBiT or Hela-SMARCA4-HiBiT cells (1:1 ratio of cells:Trypan Blue (#1450013, Bio-Rad)) onto cell counting slide (#145-0011, Bio-Rad) and obtain cell density and cell viability using cell counter (TC20, Bio-Rad). Remove appropriate volume of resuspended cells from culture flask to accommodate 2500 cells/well @ 20 μL/well. Transfer Hela-HiBiT cells to 50 ml conical (#430290, Corning). Spin down at 1000 rpm for 5 min using tabletop centrifuge (SPINCHRON 15, Beckman). Discard supernatant and resuspend cell pellet in modified EMEM (#30-2003, ATCC) cell culture media containing 10% FBS (F2422-500ML, Sigma), and 1×Penicillin/Streptomycin (200 g/1) (30-002-CI, Corning) to a cell density of 125,000 cells/ml. Dispense 20 μL of resuspended Hela-HiBit cells per well in 384-well TC treated plate (#12-565-343, Thermo Scientific) using standard cassette (#50950372, Thermo Scientific) on Multidrop Combi (#5840310, Thermo Scientific) inside laminar flow cabinet. Dispense test compounds onto plates using digital liquid dispenser (D300E, Tecan). Incubate plates in humidified tissue culture incubator @37° C. for 18 hours. Add 20 ul of prepared Nano-Glo® HiBiT Lytic detection buffer (N3050, Promega) to each well of 384-well plate using small tube cassette (#24073295, Thermo Scientific) on Multidrop Combi, incubate @ RT for 30-60 min. Read plates on microplate reader (Envision 2105, PerkinElmer) using 384 well Ultra-Sensitive luminescence mode. Raw data files and compound information reports are swept into centralized data lake and deconvoluted using automated scripts designed by TetraScience, Inc. Data analysis, curve-fitting and reporting done in Dotmatics Informatics Suite using Screening Ultra module.

SMARCA2 = SMARCA2 (Homo sapiens (Human), UniProt P51531); experiment: SMARCA2 HiBiT degradation assay in HeLa cells; format: cell-based; conditions: 18 hours; for DC50: read-out: DC50 (SM2-HeLa) SMARCA2 degradation potency; for Dmax: read-out: Dmax % (SM2-HeLa) maximum SMARCA2 degradation within the concentrations tested
Method: as §1, §2

SMARCA4, sequence (P51532 whole entry): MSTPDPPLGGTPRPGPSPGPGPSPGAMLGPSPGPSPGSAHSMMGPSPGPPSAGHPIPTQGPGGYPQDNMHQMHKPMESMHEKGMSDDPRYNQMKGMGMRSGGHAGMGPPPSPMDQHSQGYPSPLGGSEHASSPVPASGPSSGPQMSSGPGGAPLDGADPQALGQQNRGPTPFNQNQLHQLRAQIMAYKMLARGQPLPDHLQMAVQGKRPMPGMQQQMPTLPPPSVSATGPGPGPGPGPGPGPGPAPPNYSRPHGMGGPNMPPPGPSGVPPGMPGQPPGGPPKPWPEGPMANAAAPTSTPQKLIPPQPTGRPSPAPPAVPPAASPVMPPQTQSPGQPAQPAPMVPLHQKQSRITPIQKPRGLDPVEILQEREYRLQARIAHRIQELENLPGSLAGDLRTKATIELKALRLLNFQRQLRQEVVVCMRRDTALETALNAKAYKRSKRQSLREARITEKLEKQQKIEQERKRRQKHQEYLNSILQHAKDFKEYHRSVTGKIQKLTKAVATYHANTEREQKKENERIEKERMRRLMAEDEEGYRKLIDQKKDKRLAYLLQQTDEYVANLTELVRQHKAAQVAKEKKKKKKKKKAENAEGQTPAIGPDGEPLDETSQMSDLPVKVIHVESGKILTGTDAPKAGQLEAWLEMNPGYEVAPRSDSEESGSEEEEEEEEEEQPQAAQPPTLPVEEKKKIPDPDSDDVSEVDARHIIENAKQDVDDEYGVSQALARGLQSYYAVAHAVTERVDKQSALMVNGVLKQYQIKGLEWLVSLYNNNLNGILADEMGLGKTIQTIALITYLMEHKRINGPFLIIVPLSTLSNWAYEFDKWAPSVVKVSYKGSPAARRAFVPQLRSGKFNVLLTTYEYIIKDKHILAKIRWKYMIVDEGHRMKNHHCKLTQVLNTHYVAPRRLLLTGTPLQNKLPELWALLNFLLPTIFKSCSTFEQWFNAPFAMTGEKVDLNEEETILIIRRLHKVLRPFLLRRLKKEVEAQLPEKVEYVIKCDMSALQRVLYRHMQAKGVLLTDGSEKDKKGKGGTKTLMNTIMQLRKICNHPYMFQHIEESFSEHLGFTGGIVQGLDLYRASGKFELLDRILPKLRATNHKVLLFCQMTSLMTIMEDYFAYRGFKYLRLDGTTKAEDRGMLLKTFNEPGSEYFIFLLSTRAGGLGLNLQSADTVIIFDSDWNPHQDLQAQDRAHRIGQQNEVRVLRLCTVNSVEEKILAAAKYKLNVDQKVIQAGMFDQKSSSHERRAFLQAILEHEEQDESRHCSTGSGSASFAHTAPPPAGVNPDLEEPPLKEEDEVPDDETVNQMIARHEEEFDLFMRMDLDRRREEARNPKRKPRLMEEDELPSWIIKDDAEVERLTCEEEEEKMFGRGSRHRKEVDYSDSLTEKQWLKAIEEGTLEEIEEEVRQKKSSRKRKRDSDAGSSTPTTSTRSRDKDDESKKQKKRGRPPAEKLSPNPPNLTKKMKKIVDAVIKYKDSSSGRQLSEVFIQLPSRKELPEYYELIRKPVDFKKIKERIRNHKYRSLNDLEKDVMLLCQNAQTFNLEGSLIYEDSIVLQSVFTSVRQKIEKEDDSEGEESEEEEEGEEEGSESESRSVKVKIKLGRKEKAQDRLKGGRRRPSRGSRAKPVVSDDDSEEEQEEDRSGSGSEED
SMARCA2, sequence (P51531 whole entry): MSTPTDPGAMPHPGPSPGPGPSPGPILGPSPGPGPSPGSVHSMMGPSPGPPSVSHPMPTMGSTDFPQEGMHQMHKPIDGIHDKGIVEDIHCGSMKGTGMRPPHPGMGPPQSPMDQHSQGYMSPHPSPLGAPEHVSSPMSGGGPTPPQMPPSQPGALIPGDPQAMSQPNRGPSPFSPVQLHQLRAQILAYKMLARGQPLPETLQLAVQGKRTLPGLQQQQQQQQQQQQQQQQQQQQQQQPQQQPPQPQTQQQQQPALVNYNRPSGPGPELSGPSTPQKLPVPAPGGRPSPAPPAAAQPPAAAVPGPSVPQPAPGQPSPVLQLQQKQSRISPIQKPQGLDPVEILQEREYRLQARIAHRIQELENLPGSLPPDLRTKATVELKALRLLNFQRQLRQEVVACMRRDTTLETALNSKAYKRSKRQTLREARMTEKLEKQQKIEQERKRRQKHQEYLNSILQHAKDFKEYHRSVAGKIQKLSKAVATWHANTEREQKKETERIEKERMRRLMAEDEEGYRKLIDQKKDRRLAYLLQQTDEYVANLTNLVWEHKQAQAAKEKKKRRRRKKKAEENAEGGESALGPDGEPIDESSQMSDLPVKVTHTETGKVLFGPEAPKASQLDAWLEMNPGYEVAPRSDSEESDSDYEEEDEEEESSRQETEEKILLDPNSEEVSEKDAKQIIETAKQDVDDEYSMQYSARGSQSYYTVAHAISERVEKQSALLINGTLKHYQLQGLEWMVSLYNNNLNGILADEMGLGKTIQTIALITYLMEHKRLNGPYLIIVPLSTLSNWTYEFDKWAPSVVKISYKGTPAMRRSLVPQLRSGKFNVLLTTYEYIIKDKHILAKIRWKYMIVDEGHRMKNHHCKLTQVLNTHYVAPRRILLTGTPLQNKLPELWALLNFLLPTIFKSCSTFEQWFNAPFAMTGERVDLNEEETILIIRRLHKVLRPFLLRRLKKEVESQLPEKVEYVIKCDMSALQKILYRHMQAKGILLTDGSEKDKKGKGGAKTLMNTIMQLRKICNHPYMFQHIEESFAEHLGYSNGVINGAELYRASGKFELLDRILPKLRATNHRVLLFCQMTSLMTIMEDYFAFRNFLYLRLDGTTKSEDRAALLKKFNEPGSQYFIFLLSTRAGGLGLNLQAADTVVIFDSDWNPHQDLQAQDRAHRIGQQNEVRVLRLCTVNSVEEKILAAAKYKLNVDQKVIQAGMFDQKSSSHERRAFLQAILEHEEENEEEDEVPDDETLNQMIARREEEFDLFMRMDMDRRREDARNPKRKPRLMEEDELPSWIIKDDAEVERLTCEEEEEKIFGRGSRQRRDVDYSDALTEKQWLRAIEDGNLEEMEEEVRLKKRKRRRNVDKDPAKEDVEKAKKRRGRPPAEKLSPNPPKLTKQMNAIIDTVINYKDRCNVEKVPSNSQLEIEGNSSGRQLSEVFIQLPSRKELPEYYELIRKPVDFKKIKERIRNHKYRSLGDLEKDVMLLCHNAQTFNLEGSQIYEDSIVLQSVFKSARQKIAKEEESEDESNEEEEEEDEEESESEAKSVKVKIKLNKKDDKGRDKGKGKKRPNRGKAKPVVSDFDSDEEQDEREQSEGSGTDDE

Row | Dmax % (SM4-HeLa) maximum SMARCA4 degradation within the concentrations tested (SMARCA4) | DC50 (SMARCA4) [nM] | DC50 (SMARCA2) [nM] | Dmax (SMARCA2) [%] | Dmax (SMARCA4) [%] | Dmax % (SM2-HeLa) maximum SMARCA2 degradation within the concentrations tested (SMARCA2) | Structure (SMILES)
1 | B (B = 50%< Dmax <=75%) | < 100 | < 100 | > 75 |  |  | Cc1ncsc1-c1ccc([C@H](C)NC(=O)[C@@H]2C[C@@H](O)CN2C(=O)[C@@H](c2cc(O[C@@H](C)CN3CCC(N4CCN5c6cc(-c7ccccc7O)nnc6NC[C@H]5C4)C3)no2)C(C)C)cc1 (stereo partly drawn) [Example 48, (2S,4R)-4-hydroxy-1-((2R)-2-(3-(((2S)-1-(3-((S)-2-(2-hydroxyphenyl)-5,6,6a,7,9,10-hexahydro-8H-pyrazino[1′,2′:4,5]pyrazino[2,3-c]pyridazin-8-yl)pyrrolidin-1-yl)propan-2-yl)oxy)isoxazol-5-yl)-3-methylbutanoyl)N-((S)-1-(4-(4-methylthiazol-5-yl)phenyl)ethyl)pyrrolidine-2-carboxamide]
2 |  | < 100 | < 100 | > 75 | > 75 |  | Cc1ncsc1-c1ccc([C@H](C)NC(=O)[C@@H]2C[C@@H](O)CN2C(=O)[C@@H](c2cc(OCCN3CCC(N(C)C4CCN5c6cc(-c7ccccc7O)nnc6NCC5C4)CC3)no2)C(C)C)cc1 (stereo partly drawn) [Example 99, (2S,4R)-4-hydroxy-1-((2R)-2-(3-(2-(4-((2-(2-hydroxyphenyl)-6,6a,7,8,9,10-hexahydro-5H-pyrido[1′,2′:4,5]pyrazino[2,3-c]pyridazin-8-yl)(methyl)amino)piperidin-1-yl)ethoxy)isoxazol-5-yl)-3-methylbutanoyl)-N-((S)-1-(4-(4-methylthiazol-5-yl)phenyl)ethyl)pyrrolidine-2-carboxamide]
3 |  | < 100 | < 100 | > 75 | > 75 |  | Cc1ncsc1-c1ccc([C@H](C)NC(=O)[C@@H]2C[C@@H](O)CN2C(=O)[C@@H](c2cc(OCCN3CCC(N4CCC(N5CCN6c7cc(-c8ccccc8O)nnc7NC[C@H]6C5)C4)CC3)no2)C(C)C)cc1 (single isomer, unassigned) [Example 69]
4 |  | < 100 | < 100 | > 75 | > 75 |  | Cc1ncsc1-c1ccc([C@H](C)NC(=O)[C@@H]2C[C@@H](O)CN2C(=O)[C@@H](c2cc(OCCN3CC(O)C(N4CCN5c6cc(-c7ccccc7O)nnc6NC[C@H]5C4)C3)no2)C(C)C)cc1 (stereo partly drawn) [Example 93, (2S,4R)-4-hydroxy-1-((2R)-2-(3-(2-(3-hydroxy-4-((S)-2-(2-hydroxyphenyl)-5,6,6a,7,9,10-hexahydro-8H-pyrazino[1′,2′:4,5]pyrazino[2,3-c]pyridazin-8-yl)pyrrolidin-1-yl)ethoxy)isoxazol-5-yl)-3-methylbutanoyl)-N-((S)-1-(4-(4-methylthiazol-5-yl)phenyl)ethyl)pyrrolidine-2-carboxamide]
5 |  | < 100 | < 100 | > 75 | > 75 |  | Cc1ncsc1-c1ccc([C@H](C)NC(=O)[C@@H]2C[C@@H](O)CN2C(=O)[C@@H](c2cc(OCCN3CCC(N4CCN5c6cc(-c7ccccc7O)nnc6NC[C@H]5C4)C(C)C3)no2)C(C)C)cc1 (single isomer, unassigned) [Example 55]
6 |  | 100 to 1000 | < 100 | > 75 | 50 to 75 |  | Cc1ncsc1-c1ccc([C@H](C)NC(=O)[C@@H]2C[C@@H](O)CN2C(=O)[C@@H](c2cc(O[C@H](C)C(=O)N3CCC(N4CCN5c6cc(-c7ccccc7O)nnc6NC[C@H]5C4)CC3)no2)C(C)C)cc1 [Example 73, (2S,4R)-4-hydroxy-1-((R)-2-(3-(((R)-1-(4-((S)-2-(2-hydroxyphenyl)-5,6,6a,7,9,10-hexahydro-8H-pyrazino[1′,2′:4,5]pyrazino[2,3-c]pyridazin-8-yl)piperidin-1-yl)-1-oxopropan-2-yl)oxy)isoxazol-5-yl)-3-methylbutanoyl)-N-((S)-1-(4-(4-methylthiazol-5-yl)phenyl)ethyl)pyrrolidine-2-carboxamide]
7 |  | < 100 | < 100 | > 75 | > 75 |  | Cc1ncsc1-c1ccc([C@H](C)NC(=O)[C@@H]2C[C@@H](O)CN2C(=O)[C@@H](c2cc(OCCN3CCCC(CN4CCN5c6cc(-c7ccccc7O)nnc6NC[C@H]5C4)C3)no2)C(C)C)cc1 (single isomer, unassigned) [Example 86]
8 |  | ≥ 10000 | < 100 | > 75 | ≤ 50 |  | Cc1ncsc1-c1ccc([C@H](C)NC(=O)[C@@H]2C[C@@H](O)CN2C(=O)C(c2cc(CCN(C)CCN3CCN4c5cc(-c6ccccc6O)nnc5NC[C@H]4C3)no2)C(C)C)cc1 (stereo partly drawn) [Example 34, (2S,4R)-4-hydroxy-1-(2-(3-(2-((2-((S)-2-(2-hydroxyphenyl)-5,6,6a,7,9,10-hexahydro-8H-pyrazino[1′,2′:4,5]pyrazino[2,3-c]pyridazin-8-yl)ethyl)(methyl)amino)ethyl)isoxazol-5-yl)-3-methylbutanoyl)N-((S)-1-(4-(4-methylthiazol-5-yl)phenyl)ethyl)pyrrolidine-2-carboxamide]
9 | A/A (A = Dmax >75%) | < 100 | < 100 |  |  | A/A (A = Dmax >75%) | CCC(CN1CCC(N2CCN3c4cc(-c5ccccc5O)nnc4NC[C@H]3C2)C1)Oc1cc(C(C(=O)N2C[C@H](O)C[C@H]2C(=O)N[C@@H](C)c2ccc(-c3scnc3C)cc2)C(C)C)on1 (stereo partly drawn) [Example 62, (2S,4R)-4-hydroxy-1-(2-(3-((1-(3-((S)-2-(2-hydroxyphenyl)-5,6,6a,7,9,10-hexahydro-8H-pyrazino[1′,2′:4,5]pyrazino[2,3-c]pyridazin-8-yl)pyrrolidin-1-yl)butan-2-yl)oxy)isoxazol-5-yl)-3-methylbutanoyl)-N-((S)-1-(4-(4-methylthiazol-5-yl)phenyl)ethyl)pyrrolidine-2-carboxamide]
10 |  | < 100 | < 100 | > 75 | > 75 |  | Cc1ncsc1-c1ccc([C@H](C)NC(=O)[C@@H]2C[C@@H](O)CN2C(=O)[C@@H](c2cc(O[C@@H](C)CN3CCC(N4CCN5c6cc(-c7ccccc7O)nnc6NCC5(C)C4)C3)no2)C(C)C)cc1 (stereo partly drawn) [Example 64, (2S,4R)-4-hydroxy-1-((2R)-2-(3-(((2S)-1-(3-(2-(2-hydroxyphenyl)-6a-methyl-5,6,6a,7,9,10-hexahydro-8H-pyrazino[1′,2′:4,5]pyrazino[2,3-c]pyridazin-8-yl)pyrrolidin-1-yl)propan-2-yl)oxy)isoxazol-5-yl)-3-methylbutanoyl)-N-((S)-1-(4-(4-methylthiazol-5-yl)phenyl)ethyl)pyrrolidine-2-carboxamide]
11 |  | < 100 | < 100 | > 75 | 50 to 75 |  | Cc1ncsc1-c1ccc([C@H](C)NC(=O)[C@@H]2C[C@@H](O)CN2C(=O)[C@@H](c2cc(CCCN3CCCC(N4CCN5c6cc(-c7ccccc7O)nnc6NC[C@H]5C4)C3)no2)C(C)C)cc1 (stereo partly drawn) [Example 45, (2S,4R)-4-hydroxy-1-((2R)-2-(3-(3-(3-((S)-2-(2-hydroxyphenyl)-5,6,6a,7,9,10-hexahydro-8H-pyrazino[1′,2′:4,5]pyrazino[2,3-c]pyridazin-8-yl)piperidin-1-yl)propyl)isoxazol-5-yl)-3-methylbutanoyl)-N-((S)-1-(4-(4-methylthiazol-5-yl)phenyl)ethyl)pyrrolidine-2-carboxamide]
12 |  | < 100 | < 100 | > 75 | > 75 |  | Cc1ncsc1-c1ccc([C@H](C)NC(=O)[C@@H]2C[C@@H](O)CN2C(=O)[C@@H](c2cc(OCCN3CCC(N4CCN5c6cc(-c7ccccc7O)nnc6NC(C)C5C4)CC3)no2)C(C)C)cc1 (stereo partly drawn) [Example 96, (2S,4R)-4-hydroxy-1-((2R)-2-(3-(2-(4-(2-(2-hydroxyphenyl)-6-methyl-5,6,6a,7,9,10-hexahydro-8H-pyrazino[1′,2′:4,5]pyrazino[2,3-c]pyridazin-8-yl)piperidin-1-yl)ethoxy)isoxazol-5-yl)-3-methylbutanoyl)-N-((S)-1-(4-(4-methylthiazol-5-yl)phenyl)ethyl)pyrrolidine-2-carboxamide]
13 |  | < 100 | < 100 | > 75 | > 75 |  | Cc1ncsc1-c1ccc([C@H](C)NC(=O)[C@@H]2C[C@@H](O)CN2C(=O)[C@@H](c2cc(OCCN3CCC(C(C)N4CCN5c6cc(-c7ccccc7O)nnc6NC[C@H]5C4)CC3)no2)C(C)C)cc1 (single isomer, unassigned) [Example 58]
